Source: US20240076347A1, “METHODS FOR PREVENTING FUNGAL INFECTIONS” (Cidara Therapeutics, Inc., priority 2016, published 2024)
Numbered stars: 1 amine (or outer) side, 2 acyl side, 3 side chain; on linkers, the order of the positions; unused ones are H or OH. Bridge positions count the residues as written; N and C are the ends. Square brackets hold non-standard residues; d marks the D form. Peptide text beside a SMILES is read from it. * marks the point of attachment. ξ: configuration not given here. Orn(4R-OH,5R-OCH2CH2NMe3+) = C[N+](C)(C)CCO[C@@H](N[*:3])[C@H](O)C[C@H](N[*:1])C(=O)[*:2]; pTerphenylCO(4''-OnC5H11) = CCCCCOc1ccc(-c2ccc(-c3ccc(C(=O)*)cc3)cc2)cc1; hTyr(3S-OH,4S-OH) = N[C@H](C(=O)O)[C@H](O)[C@@H](O)c1ccc(O)cc1; X1 = C[C@H]1CN([*:1])C(C(=O)[*:2])C1O; Hyp = O=C(O)[C@@H]1C[C@@H](O)CN1; ξT = CC(O)C(N)C(=O)O

Experiments:
C. albicans strain 529L = assay: Rat model of vulvovaginal candidiasis, vaginal lavage and tissue burden; format: in vivo, Candida albicans; conditions: for reduction in terminal vaginal tissue burden: not statistically lower than vehicle
Experimental: Animal Strain. Wistar rats were supplied by Harlan Laboratories UK and were specific pathogen free. Rats weighed […] at the time of surgery. Ovariectomies were performed. Rats were allowed 4-7 days recovery before transportation to the facility where the experiment was to be performed. Following arrival, rats were allowed at least 4 days acclimatization before start of the experiment. Rats weighed 100-120 g at the time of ovariectomy and were about 300 g at start of the experiment.
Pre-conditioning. Female Wistar rats underwent ovariectomy at least 10 days prior to the study commencing. They were further pre-conditioned by treatment with 5 mg/kg 17-β-estradiol administered subcutaneously (SC) every other day on Days −7, −5, −3 and −1 prior to infection with C. albicans strain 529. Estradiol treatment continued every other day throughout the study to 7 days post-infection.
Yeast Isolate. Candida albicans strain 529L was used in this chronic rat vaginal infection model.
Infection. Yeast strains were inoculated aerobically onto Sabouraud dextrose agar media (SAB) containing 0.05 mg/mL chloramphenicol and incubated at 30° C. for 48-72 h. 18-24 h prior to infection, Yeast Peptone Dextrose (YPD) broths were inoculated with 2-3 isolated colonies from agar plates and incubated overnight (37° C. on an orbital shaker). Broths containing C. albicans strain 529L were washed 3 times with sterile phosphate buffered saline (PBS) before dilution to the correct inoculum for infection. Cell counts were determined using a haemocytometer and confirmed by quantitative culture on Sabouraud dextrose agar.
Rats were infected with 0.1 mL by intravaginal administration under inhaled isoflurane anaesthesia using about 9.8×10^5 CFU/mL (9.8×10^4 CFU/Rat) C. albicans strain 529L
Treatment. […] The fluconazole treatment also started at 24 h post infection but was administered by the PO route at the dose volume and frequency shown in Table 7. The study design is further outlined in FIG. 19.
Reduction in weight and general loss of condition due to estradiol treatment are also typical in this rat model. Colonization with C. albicans was determined by quantitative culture of daily vaginal lavage samples. Rats were euthanized 9 days post infection and C. albicans determined by quantitative culture of vaginal tissue (including uterine horns).
Lavage samples were obtained on Days 1 (pre-treatment), 2, 3, 5, 7, and 9 days post infection by flushing rat vaginas 4 times with 0.1 mL pre-warmed sterile PBS. Following euthanasia, vaginal tissue including uterine horns was removed prior to weighing. Tissues were homogenized in 2 mL sterile PBS using a bead-beater. Vaginal wash and tissue homogenates were diluted appropriately then quantitatively cultured on to Sabouraud dextrose agar containing 0.05 mg/mL chloramphenicol and incubated at 37° C. for up to 72 h before being counted.
Statistical analysis. Data were analyzed using StatsDirect software (version 2.7.8) using the non-parametric Kruskal-Wallis test and if this was statistically significant all pairwise comparisons were analyzed (Conover-Inman).

C. glabrata = assay: In vitro susceptibility testing (CLSI M27-A3); format: cell-based, Candida glabrata; conditions: Nakaseomyces glabratus, 24 h
Experimental: Strains. Ten clinical Candida strains were used for the in vivo treatment studies, including four C. albicans, three C. glabrata, and three C. parapsilosis strains (Table 18). This group was selected to encompass phenotypic variability in susceptibility to triazoles and echinocandins and based on similar fitness in the animal model as defined by the amount of growth in control animals over 24 h. The organisms were maintained, grown, and quantified on Sabouraud's dextrose agar (SDA) plates.
In vitro susceptibility testing. All isolates were tested in accordance with the standards in CLSI document M27-A3. The MICs were determined visually after 24 h of incubation as the lowest concentration of drug that causes a significant diminution (≥50%) of growth compared to controls. MICs were determined on three separate occasions in duplicate.

[1] = lavage Day 1 post treatment (Day 2 post infection), 5 mg/kg SC dosed once
[2] = lavage Day 1 post treatment (Day 2 post infection), 5 mg/kg SC dosed twice
[3] = lavage Day 1 post treatment (Day 2 post infection), 10 mg/kg SC dosed once
[4] = lavage Day 2 post treatment (Day 3 post infection), 5 mg/kg SC dosed once
[5] = lavage Day 2 post treatment (Day 3 post infection), 5 mg/kg SC dosed twice
[6] = lavage Day 2 post treatment (Day 3 post infection), 10 mg/kg SC dosed once
[7] = lavage Day 4 post treatment (Day 5 post infection), 5 mg/kg SC dosed once
[8] = lavage Day 4 post treatment (Day 5 post infection), 5 mg/kg SC dosed twice
[9] = lavage Day 4 post treatment (Day 5 post infection), 10 mg/kg SC dosed once
[10] = lavage Day 5 post infection, 10 mg/kg SC once
[11] = lavage Day 6 post treatment (Day 7 post infection), 5 mg/kg SC dosed once
[12] = lavage Day 6 post treatment (Day 7 post infection), 5 mg/kg SC dosed twice
[13] = lavage Day 6 post treatment (Day 7 post infection), 10 mg/kg SC dosed once
[14] = lavage Day 8 post treatment (Day 9 post infection), 5 mg/kg SC dosed once
[15] = lavage Day 8 post treatment (Day 9 post infection), 5 mg/kg SC dosed twice
[16] = lavage Day 8 post treatment (Day 9 post infection), 10 mg/kg SC dosed once
[17] = terminal vaginal tissue (vagina, uterus, uterine horns) Day +9 post infection, 5 mg/kg SC dosed once
[18] = terminal vaginal tissue Day +9 post infection, 5 mg/kg SC dosed twice
[19] = terminal vaginal tissue Day +9 post infection, 10 mg/kg SC dosed once
[20] = vaginal lavage Day 1 post infection, pre-treatment, 5 mg/kg SC dosed once group
[21] = vaginal lavage Day 1 post infection, pre-treatment, 5 mg/kg SC dosed twice group
[22] = vaginal lavage Day 1 post infection, pre-treatment, 10 mg/kg SC dosed once group

SMILES: CCCCCOc1ccc(-c2ccc(-c3ccc(C(=O)N[C@H]4C[C@@H](O)[C@@H](OCC[N+](C)(C)C)NC(=O)C5C(O)[C@@H](C)CN5C(=O)[C@H]([C@@H](C)O)NC(=O)[C@H]([C@H](O)[C@@H](O)c5ccc(O)cc5)NC(=O)[C@@H]5C[C@@H](O)CN5C(=O)C(C(C)O)NC4=O)cc3)cc2)cc1 (stereo partly drawn) [CD101] ({pTerphenylCO(4''-OnC5H11)}-[Orn(4R-OH,5R-OCH2CH2NMe3+)][ξT][Hyp][hTyr(3S-OH,4S-OH)]T[X1]; lactam 1-C)
- reduction in terminal vaginal tissue burden (C. albicans strain 529L; 5 mg/kg SC once, Day 9): about 0.4 Log10 CFU/g
- reduction in terminal vaginal tissue burden (C. albicans strain 529L; 5 mg/kg SC twice, Day 9): about 0.9 Log10 CFU/g
- rats with tissue burdens below the levels of detection (C. albicans strain 529L; 10 mg/kg SC once, Day 9): 5/6
- CFU (C. albicans strain 529L; 10 mg/kg SC once, all but one rat, Day 9): undetectable CFU
- Group Geometric mean (C. albicans strain 529L; [1]): 3.34 × 10^2 CFU/mL
- Log Group Geometric mean (C. albicans strain 529L; [1]): 2.52 CFU/mL
- Log reduction from vehicle control (C. albicans strain 529L; [1]): 1.17 CFU/mL
- Group Geometric mean (C. albicans strain 529L; [2]): 2.56 × 10^2 CFU/mL
- Log Group Geometric mean (C. albicans strain 529L; [2]): 2.41 CFU/mL
- Log reduction from vehicle control (C. albicans strain 529L; [2]): 1.29 CFU/mL
- Group Geometric mean (C. albicans strain 529L; [3]): 2.48 × 10^2 CFU/mL
- Log Group Geometric mean (C. albicans strain 529L; [3]): 2.39 CFU/mL
- Log reduction from vehicle control (C. albicans strain 529L; [3]): 1.30 CFU/mL
- burden vs vehicle, statistics (C. albicans strain 529L; lavage Day 2 post infection): neither the CD101 nor fluconazole burden was statistically different from the vehicle burden
- reduction in burden (C. albicans strain 529L; lavage Day 2 post infection, all doses of CD101): about 1.3 Log10 CFU/mL
- Group Geometric mean (C. albicans strain 529L; [4]): 1.21 × 10^2 CFU/mL
- Log Group Geometric mean (C. albicans strain 529L; [4]): 2.08 CFU/mL
- Log reduction from vehicle control (C. albicans strain 529L; [4]): 1.49 CFU/mL
- Group Geometric mean (C. albicans strain 529L; [5]): 1.95 × 10^2 CFU/mL
- Log Group Geometric mean (C. albicans strain 529L; [5]): 2.29 CFU/mL
- Log reduction from vehicle control (C. albicans strain 529L; [5]): 1.28 CFU/mL
- Group Geometric mean (C. albicans strain 529L; [6]): 23.2 CFU/mL
- Log Group Geometric mean (C. albicans strain 529L; [6]): 1.37 CFU/mL
- Log reduction from vehicle control (C. albicans strain 529L; [6]): 2.21 CFU/mL
- burden vs vehicle, statistics (C. albicans strain 529L; lavage Day 3 post infection, all treatments): statistically different from the vehicle treatments
- Group Geometric mean (C. albicans strain 529L; [7]): 1.70 × 10^3 CFU/mL
- Log Group Geometric mean (C. albicans strain 529L; [7]): 3.23 CFU/mL
- Log reduction from vehicle control (C. albicans strain 529L; [7]): 0.99 CFU/mL
- Group Geometric mean (C. albicans strain 529L; [8]): 1.73 × 10^3 CFU/mL
- Log Group Geometric mean (C. albicans strain 529L; [8]): 3.24 CFU/mL
- Log reduction from vehicle control (C. albicans strain 529L; [8]): 0.98 CFU/mL
- Group Geometric mean (C. albicans strain 529L; [9]): 1.73 CFU/mL
- Log Group Geometric mean (C. albicans strain 529L; [9]): 0.24 CFU/mL
- Log reduction from vehicle control (C. albicans strain 529L; [9]): 3.98 CFU/mL
- burden reduced to (C. albicans strain 529L; lavage Day 5 post infection, 5 mg/kg SC once or twice, not statistically different from vehicle): about 1 Log10 CFU/m
- burden reduced to (C. albicans strain 529L; [10]): about 4 Logo CFU/mL
- rats having burden below the limit of detection (C. albicans strain 529L; [10]): 5/6
- Group Geometric mean (C. albicans strain 529L; [11]): 4.56 × 10^3 CFU/mL
- Log Group Geometric mean (C. albicans strain 529L; [11]): 3.66 CFU/mL
- Log reduction from vehicle control (C. albicans strain 529L; [11]): 0.52 CFU/mL
- Group Geometric mean (C. albicans strain 529L; [12]): 6.47 × 10^2 CFU/mL
- Log Group Geometric mean (C. albicans strain 529L; [12]): 2.81 CFU/mL
- Log reduction from vehicle control (C. albicans strain 529L; [12]): 1.37 CFU/mL
- Group Geometric mean (C. albicans strain 529L; [13]): 2.59 CFU/mL
- Log Group Geometric mean (C. albicans strain 529L; [13]): 0.41 CFU/mL
- Log reduction from vehicle control (C. albicans strain 529L; [13]): 3.77 CFU/mL
- Group Geometric mean (C. albicans strain 529L; [14]): 4.58 × 10^3 CFU/mL
- Log Group Geometric mean (C. albicans strain 529L; [14]): 3.66 CFU/mL
- Log reduction from vehicle control (C. albicans strain 529L; [14]): 0.64 CFU/mL
- Group Geometric mean (C. albicans strain 529L; [15]): 1.28 × 10^3 CFU/mL
- Log Group Geometric mean (C. albicans strain 529L; [15]): 3.11 CFU/mL
- Log reduction from vehicle control (C. albicans strain 529L; [15]): 1.19 CFU/mL
- Group Geometric mean (C. albicans strain 529L; [16]): 2.75 CFU/mL
- Log Group Geometric mean (C. albicans strain 529L; [16]): 0.44 CFU/mL
- Log reduction from vehicle control (C. albicans strain 529L; [16]): 3.86 CFU/mL
- Group Geometric mean (C. albicans strain 529L; [17]): 1.37 × 10^5 CFU/g
- Log Group Geometric mean (C. albicans strain 529L; [17]): 5.14 CFU/g
- Log reduction from vehicle control (C. albicans strain 529L; [17]): 0.36 CFU/g
- Group Geometric mean (C. albicans strain 529L; [18]): 4.00 × 10^4 CFU/g
- Log Group Geometric mean (C. albicans strain 529L; [18]): 4.60 CFU/g
- Log reduction from vehicle control (C. albicans strain 529L; [18]): 0.89 CFU/g
- Group Geometric mean (C. albicans strain 529L; [19]): 5.52 CFU/g
- Log Group Geometric mean (C. albicans strain 529L; [19]): 0.74 CFU/g
- Log reduction from vehicle control (C. albicans strain 529L; [19]): 4.75 CFU/g
- Group Geometric mean (C. albicans strain 529L; [20]): 9.11 × 10^2 CFU/mL
- Log Group Geometric mean (C. albicans strain 529L; [20]): 2.96 CFU/mL
- Log reduction from vehicle control (C. albicans strain 529L; [20]): −0.52 CFU/mL
- Group Geometric mean (C. albicans strain 529L; [21]): 1.83 × 10^3 CFU/mL
- Log Group Geometric mean (C. albicans strain 529L; [21]): 3.26 CFU/mL
- Log reduction from vehicle control (C. albicans strain 529L; [21]): −0.83 CFU/mL
- Group Geometric mean (C. albicans strain 529L; [22]): 3.68 × 10^2 CFU/mL
- Log Group Geometric mean (C. albicans strain 529L; [22]): 2.57 CFU/mL
- Log reduction from vehicle control (C. albicans strain 529L; [22]): −0.13 CFU/mL
- MIC (C. glabrata; strain 5592): 0.125 µg/mL
- MIC (C. glabrata; strain 10956 (FKS2_HS1_F659V)): 1 µg/mL
- MIC (C. glabrata; strain 35315): 0.5 µg/mL
